According to patent US11155520B2, “Picolinamides as fungicides” (Dow AgroSciences LLC, priority 2018, dated 2021):

Experiments:
Assay type in all cases: in vivo
Phakopsora pachyrhizi = assay: Fungicidal activity: Asian soybean rust (PHAKPA); settings: High volume, 25 ppm; for PHAKPA 1DP disease control: 1 Day Protectant; for PHAKPA 3DC disease control: 3 Day Curative
Description: Technical grades of materials were dissolved in acetone, which were then mixed with nine volumes of water containing 0.011% Tween 20. The fungicide solutions were applied onto soybean seedlings using an automated booth sprayer to run-off. All sprayed plants were allowed to air dry prior to further handling.
Soybean plants (variety Williams 82) were grown in soil-less Metro mix, with one plant per pot. Two week old seedlings were used for testing. Plants were inoculated either 3 days prior to or 1 day after fungicide treatments. Plants were incubated for 24 h in a dark dew room at 22° C. and 100% relative humidity then transferred to a growth room at 23° C. for disease to develop. Disease severity was assessed on the sprayed leaves.

[1] = test system: Magnaporthe grisea; Anamorph: Pyricularia oryzae; settings: 1DP test at 100 ppm, rice
[2] = test system: Glomerella lagenarium; Anamorph: Colletotrichum lagenarium; assay: Fungicidal activity: cucumber anthracnose (COLLLA); settings: 1DP test at 100 ppm
Description: Technical grades of materials were dissolved in acetone, which were then mixed with nine volumes of water containing 110 ppm Triton X-100. The fungicide solutions were applied onto wheat seedlings using an automated booth sprayer to run-off. All sprayed plants were allowed to air dry prior to further handling. All fungicides were evaluated using the aforementioned method for their activity vs. all target diseases, unless stated otherwise. Wheat leaf blotch and brown rust activity were also evaluated using track spray applications, in which case the fungicides were formulated as EC formulations, containing 0.1% Trycol 5941 in the spray solutions. Cucumber seedlings (variety Bush Pickle) were propagated in soil-less Metro mix, with each pot having one plant, and used in the test when 12 to 14 days old. Test plants were inoculated with an aqueous spore suspension of Colletotrichum lagenarium 24 hr after fungicide treatments. After inoculation the plants were kept in a dew room at 22° C. with 100% relative humidity for 48 hr to permit spores to germinate and infect the leaf. The plants were then transferred to a growth room set at 22° C. for disease to develop. Fungicide formulation, application and disease assessment on the sprayed leaves followed the procedures as described in the Example A.

[3] = test system: Pseudoperonospora cubensis; assay: Fungicidal activity: cucumber downy mildew (PSPECU); settings: 1DP test at 100 ppm
Description: Technical grades of materials were dissolved in acetone, which were then mixed with nine volumes of water containing 110 ppm Triton X-100. The fungicide solutions were applied onto wheat seedlings using an automated booth sprayer to run-off. All sprayed plants were allowed to air dry prior to further handling. All fungicides were evaluated using the aforementioned method for their activity vs. all target diseases, unless stated otherwise. Wheat leaf blotch and brown rust activity were also evaluated using track spray applications, in which case the fungicides were formulated as EC formulations, containing 0.1% Trycol 5941 in the spray solutions. Cucumber seedlings (variety Bush Pickle) were grown in soil-less Metro mix, with one plant per pot, and used in the test when 12 to 14 days old. Plants were inoculated with a spore suspension 24 hr following fungicide treatments. Test plants were inoculated with an aqueous spore suspension of Pseudoperonospora cubensis 24 hr after fungicide treatments. After inoculation the plants were kept in a dew room at 22° C. with 100% relative humidity for 24 hr to permit spores to germinate and infect the leaf. The plants were then transferred to a greenhouse set at 20° C. until disease was fully expressed. Fungicide formulation, application and disease assessment on the sprayed leaves followed the procedures as described in the Example A.

Alternaria solani = assay: Fungicidal activity: tomato early blight (ALTESO); settings: 1DP test at 100 ppm
Description: Technical grades of materials were dissolved in acetone, which were then mixed with nine volumes of water containing 110 ppm Triton X-100. The fungicide solutions were applied onto wheat seedlings using an automated booth sprayer to run-off. All sprayed plants were allowed to air dry prior to further handling. All fungicides were evaluated using the aforementioned method for their activity vs. all target diseases, unless stated otherwise. Wheat leaf blotch and brown rust activity were also evaluated using track spray applications, in which case the fungicides were formulated as EC formulations, containing 0.1% Trycol 5941 in the spray solutions. Tomato plants (variety Outdoor Girl) were propagated in soil-less Metro mix, with each pot having one plant, and used when 12 to 14 days old. Test plants were inoculated with an aqueous spore suspension of Alternaria solani 24 hr after fungicide treatments. After inoculation the plants were kept in 100% relative humidity (one day in a dark dew chamber followed by two to three days in a lighted dew chamber at 20° C.) to permit spores to germinate and infect the leaf. The plants were then transferred to a growth room at 22° C. for disease to develop. Fungicide formulation, application and disease assessment on the sprayed leaves followed the procedures as described in the Example A.

Cercospora beticola = assay: Fungicidal activity: leaf spot of sugar beets (CERCBE); settings: 1DP test at 100 ppm, sugar beet
Description: Technical grades of materials were dissolved in acetone, which were then mixed with nine volumes of water containing 110 ppm Triton X-100. The fungicide solutions were applied onto wheat seedlings using an automated booth sprayer to run-off. All sprayed plants were allowed to air dry prior to further handling. All fungicides were evaluated using the aforementioned method for their activity vs. all target diseases, unless stated otherwise. Wheat leaf blotch and brown rust activity were also evaluated using track spray applications, in which case the fungicides were formulated as EC formulations, containing 0.1% Trycol 5941 in the spray solutions. Sugar beet plants (variety HH88) were grown in soil-less Metro mix and trimmed regularly to maintain a uniform plant size prior to test. Plants were inoculated with a spore suspension 24 hr after fungicide treatments. Inoculated plants were kept in a dew chamber at 22° C. for 48 hr then incubated in a greenhouse set at 24° C. under a clear plastic hood with bottom ventilation until disease symptoms were fully expressed. Fungicide formulation, application and disease assessment on the sprayed leaves followed the procedures as described in the Example A.

Uncinula necator = assay: Fungicidal activity: grape powdery mildew (UNCINE); settings: 1DP test at 100 ppm
Description: Technical grades of materials were dissolved in acetone, which were then mixed with nine volumes of water containing 110 ppm Triton X-100. The fungicide solutions were applied onto wheat seedlings using an automated booth sprayer to run-off. All sprayed plants were allowed to air dry prior to further handling. All fungicides were evaluated using the aforementioned method for their activity vs. all target diseases, unless stated otherwise. Wheat leaf blotch and brown rust activity were also evaluated using track spray applications, in which case the fungicides were formulated as EC formulations, containing 0.1% Trycol 5941 in the spray solutions. Grape seedlings (variety Carignane) were grown in soil-less Metro mix, with one plant per pot, and used in the test when approximately 1 month old. Plants were inoculated 24 hr after fungicide treatment by shaking spores from infected leaves over test plants. Plants were maintained in a greenhouse set at 20° C. until disease was fully developed. Fungicide formulation, application and disease assessment on sprayed leaves followed the procedures as described in the Example A.

Rhyncosporium secalis = assay: Fungicidal activity: barley scald (RHYNSE); settings: 1DP test at 100 ppm
Description: Technical grades of materials were dissolved in acetone, which were then mixed with nine volumes of water containing 110 ppm Triton X-100. The fungicide solutions were applied onto wheat seedlings using an automated booth sprayer to run-off. All sprayed plants were allowed to air dry prior to further handling. All fungicides were evaluated using the aforementioned method for their activity vs. all target diseases, unless stated otherwise. Wheat leaf blotch and brown rust activity were also evaluated using track spray applications, in which case the fungicides were formulated as EC formulations, containing 0.1% Trycol 5941 in the spray solutions. Barley seedlings (variety Harrington) were propagated in soil-less Metro mix, with each pot having 8 to 12 plants, and used in the test when first leaf was fully emerged. Test plants were inoculated by an aqueous spore suspension of Rhyncosporium secalis 24 hr after fungicide treatments. After inoculation the plants were kept in a dew room at 20° C. with 100% relative humidity for 48 hr. The plants were then transferred to a greenhouse set at 20° C. for disease to develop. Fungicide formulation, application and disease assessment on the sprayed leaves followed the procedures as described in the Example A.

Parastagonospora nodorum = assay: Fungicidal activity: wheat glume blotch (LEPTNO); settings: 1DP test at 100 ppm
Description: Technical grades of materials were dissolved in acetone, which were then mixed with nine volumes of water containing 110 ppm Triton X-100. The fungicide solutions were applied onto wheat seedlings using an automated booth sprayer to run-off. All sprayed plants were allowed to air dry prior to further handling. All fungicides were evaluated using the aforementioned method for their activity vs. all target diseases, unless stated otherwise. Wheat leaf blotch and brown rust activity were also evaluated using track spray applications, in which case the fungicides were formulated as EC formulations, containing 0.1% Trycol 5941 in the spray solutions. Wheat plants (variety Yuma) were grown from seed in a greenhouse in 50% mineral soil/50% soil-less Metro mix until the first leaf was fully emerged, with 7-10 seedlings per pot. These plants were inoculated with an aqueous spore suspension of Parastagonospora nodorum 24 hr after fungicide treatments. After inoculation the plants were kept in 100% relative humidity (one day in a dark dew chamber followed by two days in a lighted dew chamber at 20° C.) to permit spores to germinate and infect the leaf. The plants were then transferred to a greenhouse set at 20° C. for disease to develop. Fungicide formulation, application and disease assessment followed the procedures as described in the Example A.

## COc1ccnc(C(=O)NCC(=O)O[C@@H](C)[C@H](C)c2ccc(F)cc2C)c1OC(=O)C(C)C [Example 197]
Phakopsora pachyrhizi
  PHAKPA 1DP disease control: D (≤0)
  PHAKPA 3DC disease control: D (≤0)

## COc1ccnc(C(=O)N[C@H](C(=O)O[C@@H](C)[C@H](C)c2ccc(F)cc2C)C(C)C)c1OC(=O)C(C)C [Example 210]
Phakopsora pachyrhizi
  PHAKPA 3DC disease control: D (≤0)

## COc1ccnc(C(=O)N[C@H](C(=O)O[C@H](C)[C@H](C)c2ccc(F)cc2C)C(C)C)c1OC(=O)C(C)C [Example 214]
Phakopsora pachyrhizi
  PHAKPA 1DP disease control: B (≤80)

## COc1ccnc(C(=O)N[C@@H](C)C(=O)O[C@H](C)[C@@H](C)c2ccccc2C)c1OC(=O)C(C)C [Example 225]
Phakopsora pachyrhizi
  PHAKPA 1DP disease control: D (≤0)

## COc1ccnc(C(=O)N[C@@H](C)C(=O)O[C@H](C)[C@H](C)c2ccccc2C)c1OC(C)=O [Example 263]
[1]
  PYRIOR disease control: B (≤80)
[2]
  COLLLA disease control: D (≤0)
[3]
  PSPECU disease control: B (≤80)
Alternaria solani
  ALTESO disease control: B (≤80)
Cercospora beticola
  CERCBE disease control: B (≤80)
Uncinula necator
  UNCINE disease control: A (>80)
Rhyncosporium secalis
  RHYNSE disease control: B (≤80)
Parastagonospora nodorum
  LEPTNO disease control: B (≤80)

## COc1ccnc(C(=O)N[C@@H](C)C(=O)O[C@@H](C)[C@@H](C)c2ccccc2C)c1OC(C)=O [Example 264]
[1]
  PYRIOR disease control: A (>80)
[2]
  COLLLA disease control: B (≤80)
[3]
  PSPECU disease control: B (≤80)
Alternaria solani
  ALTESO disease control: B (≤80)
Cercospora beticola
  CERCBE disease control: A (>80)
Uncinula necator
  UNCINE disease control: A (>80)
Rhyncosporium secalis
  RHYNSE disease control: B (≤80)
Parastagonospora nodorum
  LEPTNO disease control: A (>80)

## COc1ccnc(C(=O)N[C@@H](C)C(=O)O[C@@H](C)[C@@H](C)c2ccccc2C)c1OC(=O)C(C)C [Example 266]
[1]
  PYRIOR disease control: A (>80)
[2]
  COLLLA disease control: D (≤0)
[3]
  PSPECU disease control: D (≤0)
Alternaria solani
  ALTESO disease control: B (≤80)
Cercospora beticola
  CERCBE disease control: B (≤80)
Uncinula necator
  UNCINE disease control: A (>80)
Rhyncosporium secalis
  RHYNSE disease control: B (≤80)
Parastagonospora nodorum
  LEPTNO disease control: A (>80)
